Assay: Absorption and fluorescence spectral properties
Assay type: physicochemical
From the text: For all the syntheses, all starting materials and reagents were of the highest purity available (Aldrich Chemical Company, Milwaukee, Wis.) and used without further purification, except where noted. Solvents were HPLC grade (Fisher Scientific, Pittsburgh, Pa.) and were dried over activated molecular sieves. NMR spectra were acquired on a Varian Gemini 200 MHz spectrometer. Absorption and fluorescence spectra were taken respectively on a Cary 50 BIO and Varain Eclipse (Varian, Inc., Palo Alto, Calif.).

For CN1C(=O)C(=C/C=C/c2c(O)[nH]c(=S)n(C)c2=O)C(=O)N(C)C1=S [Compound 4], the absorption maximum was 532 nm, the emission maximum was 555 nm and the ext. coefficient (at 532 nm) was 175,000 M^−1 cm^−1. The quantum yield (in octanol) was greater than 0.2.

From patent US8329390B2, “Detection of transmembrane potentials using N,N,N′-trialkyl thiobarbituric acid-derived polymethine oxonols” (priority 2004, dated 2012)
